Assay results: US10577362B2, “Substituted 2, 4-diamino-quinoline derivatives for use in the treatment of proliferative diseases” (GENOSCIENCE PHARMA, priority 2016, dated 2020)

Assays:
[1] = system: MOLM-14 (acute myeloid leukemia) cell line; assay: CellTiter-Glo luminescent cell viability assay, MOLM-14; assay type: cell-based, human; conditions: Homo sapiens; for viability at 4 µM: MOLM-14, compound at 4 μM; for viability at 4 µM / viability at 10 µM: 72 h; for viability at 10 µM: MOLM-14, compound at 10 μM; for EC50: MOLM-14 cell line, 72 h incubation, CellTiter-Glo, read-out: EC50, growth inhibition of MOLM-14
Outline: (§1)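 Adherent lines plated overnight, MOLM-14 (suspension) 1 h before dosing, in medium with 10% FBS at 37 °C, 5% CO2. Compounds added at varying concentrations for 72 h; CellTiter-Glo luminescence read, EC50 as dose reducing signal to 50% of diluent-treated cells, at least duplicate points.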

[2] = system: A375 (malignant melanoma) cell line; assay: CellTiter-Glo luminescent cell viability assay, A375; assay type: cell-based, human; conditions: Homo sapiens, A-375; for viability at 4 µM: A375, compound at 4 μM; for viability at 4 µM / viability at 10 µM: 72 h; for viability at 10 µM: A375, compound at 10 μM; for EC50: A375 cell line, 72 h incubation, CellTiter-Glo, read-out: EC50, growth inhibition of A375
Outline: (§2)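 72 h compound exposure, 37 °C, 5% CO2, 10% FBS medium; ATP luminescence read after 30 min RT equilibration. Viability as % of H2O/DMSO diluent control; EC50 = dose giving 50% of control signal. Duplicate points minimum.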

[3] = system: HCT-116 (colorectal carcinoma) cell line; assay: CellTiter-Glo luminescent cell viability assay, HCT-116; assay type: cell-based, human; conditions: Homo sapiens; for viability at 4 µM: HCT-116, compound at 4 μM; for viability at 4 µM / viability at 10 µM: 72 h; for viability at 10 µM: HCT-116, compound at 10 μM; for EC50: HCT-116 cell line, 72 h incubation, CellTiter-Glo, read-out: EC50, growth inhibition of HCT-116
Outline: as §2

[4] = system: Huh7 (hepatocellular carcinoma) cell line; assay: CellTiter-Glo luminescent cell viability assay, Huh7; assay type: cell-based, human; conditions: Homo sapiens, Huh-7; for viability at 4 µM: Huh7, compound at 4 μM; for viability at 4 µM / viability at 10 µM: 72 h; for viability at 10 µM: Huh7, compound at 10 μM; for EC50: Huh7 cell line, 72 h incubation, CellTiter-Glo, read-out: EC50, growth inhibition of Huh7
Outline: as §1

[5] = system: 786-O (renal adenocarcinoma) cell line; assay: CellTiter-Glo luminescent cell viability assay, 786-O; assay type: cell-based, human; conditions: Homo sapiens, 786-0; for viability at 4 µM / viability at 10 µM: 786-O, 72 h; for viability at 4 µM: compound at 4 μM; for viability at 10 µM: compound at 10 μM; for EC50: 786-O cell line, 72 h incubation, CellTiter-Glo, read-out: EC50, growth inhibition of 786-O
Outline: as §2

[6] = system: HepG2 (hepatocellular carcinoma) cell line; assay: CellTiter-Glo luminescent cell viability assay, HepG2; assay type: cell-based, human; conditions: Homo sapiens; for viability at 4 µM / viability at 10 µM: HepG2, HepG, 72 h; for viability at 4 µM: compound at 4 μM; for viability at 10 µM: compound at 10 μM; for EC50: HepG2 cell line, 72 h incubation, CellTiter-Glo, read-out: EC50, growth inhibition of HepG2
Outline: as §1

[7] = system: PANC-1 (prancreatic carcinoma) cell line; assay: CellTiter-Glo luminescent cell viability assay, PANC-1; assay type: cell-based; conditions: Homo sapiens; for viability at 4 µM: PANC-1, 4 μM; for viability at 4 µM / viability at 10 µM: 72 h, % of signal of diluent-treated cultures; for viability at 10 µM: PANC-1, 10 μM; for EC50: PANC-1 cell line, 72 h incubation, CellTiter-Glo, read-out: EC50 (growth inhibition assay of PANC-1 cell line)
Method: All cell lines were maintained in medium containing 1% penicillin-streptomycin (Dutscher, P06-07100) and 10% Fetal Bovine Serum (Hyclone Dutscher, RZK35922) cultured at 37° C. with 5% CO2. HepG2 (hepatocellular carcinoma), cell line was cultured in Dulbecco's modified Eagle's medium low glucose (Gibco, 21885025), Huh7 (hepatocellular carcinoma), HCT-116 (colorectal carcinoma), PANC-1 (prancreatic carcinoma) and A375 (malignant melanoma) cell lines were cultured in Dulbecco's modified Eagle's medium (Dutscher, L0103). MOLM-14 (acute myeloid leukemia) cell line was maintained in MEM alpha medium (Gibco, 22561-021). 786-0 (renal adenocarcinoma) cell lines were maintained in RPMI 1640 medium (Dutscher, L0498).
Cell viability was measured using the CellTiter-Glo® luminescent cell viability assay as described by the manufacturer (Promega, Ref G7571) using an Infinite F200Pro luminometer (Tecan). Briefly, for adherent cells, cells were plated onto 96-well plates (white with clear bottom) in 90 μL of media per well and were allowed to grow overnight before the assay. For cells growing in suspension, cells were plated onto 96-well plates 1 h before the assay.
Compounds were resuspended in H2O or DMSO and added at different concentrations to each well, and cell cultures were incubated for 72 h. Each diluent (H2O or DMSO) were used as a control, and all compounds were tested in a constant percentage of H2O or DMSO. On the day of the reading, plates are equilibrated 30 min at room temperature before the addition of 100 μL of CellTiter-Glo® and luminescence was measured using an Infinite F200Pro (Tecan). % cell viability were expressed as a percentage of the signal obtained for cell cultures treated with diluent. EC50 values were determined as the dose of compound required to reduce luminescent values to 50% of the signal obtained for cell cultures treated with diluent. The experimental data were analyzed using a computer program, Graphpad Prism v5 (GraphPad Software, Inc. La Jolla, Calif.). All points were at least done in duplicate.

Row | Structure (SMILES) | EC50 [1] [µM] | EC50 [2] [µM] | EC50 [3] [µM] | EC50 [4] [µM] | EC50 [5] [µM] | EC50 [6] [µM] | viability at 4 µM [1] [%] | viability at 10 µM [1] [%] | viability at 4 µM [2] [%] | viability at 10 µM [2] [%] | viability at 4 µM [3] [%] | viability at 10 µM [3] [%] | viability at 4 µM [4] [%] | viability at 10 µM [4] [%] | viability at 4 µM [5] [%] | viability at 10 µM [5] [%] | viability at 4 µM [6] [%] | viability at 10 µM [6] [%] | viability at 4 µM [7] [%] | viability at 10 µM [7] [%] | other results
1 | N#Cc1c(NCc2ccc(Cl)cc2)nc2ccccc2c1N1CCCC(N2CCOCC2)C1 (stereo not shown) [Compound 178CN, 2-(4-chlorobenzylamino)-3-cyano-4-[3-(morpholino)piperidin-1-yl]quinoline] | – | – | – | – | – | – | 123 | 106 | 95.5 | 90.2 | 95.7 | 77 | 95.3 | 81.9 | 99.6 | 88.9 | 101 | 97.5 | 100 | 96.6 | –
2 | CC(C)(C)OC(=O)NC1CCN(c2c(C#N)c(NCc3ccc(Cl)cc3)nc3ccccc23)CC1 [Compound 182CN, 2-(4-chlorobenzylamino)-3-cyano-4-{4-[(tert-butyloxycarbonyl)amino]piperidin-1-yl}quinoline] | – | – | – | – | – | – | 86.9 | 48.7 | 94.4 | 90.2 | 66.9 | 47.7 | 86 | 76.2 | 89.9 | 83.9 | 91.6 | 89.8 | 100 | 95.3 | –
3 | CCN(CC)C1CCN(c2c(C#N)c(NCc3ccc(Cl)cc3)nc3ccccc23)CC1 [Compound 184CN, 2-(4-chlorobenzylamino)-3-cyano-4-[4-(diethylamino)piperidin-1-yl]quinoline] | 5 to 10 | 0.5 to 5 | 5 to 10 | 5 to 10 | 5 to 10 | 5 to 10 | 95.1 | 0.7 | 53.7 | 0.8 | 65.7 | 0.9 | 74.7 | 0.7 | 72.6 | 1.1 | 72.4 | 0.8 | 91.8 | 46.6 | EC50 [7]: 5 to 10 µM
4 | N#Cc1c(NCc2ccc(Cl)cc2)nc2ccccc2c1N1CCC(N2CCCC2)CC1 [Compound 200CN, 2-(4-chlorobenzylamino)-3-cyano-4-[4-(pyrrolidin-1-yl)piperidin-1-yl]quinoline] | 0.5 to 5 | 0.5 to 5 | 0.5 to 5 | 5 to 10 | 0.5 to 5 | 5 to 10 | 92.7 | 0.4 | 65.9 | 0.4 | 78.1 | 0.5 | 83.1 | 0.7 | 74.8 | 2.2 | 90.8 | 0.9 | 98.8 | 60.8 | EC50 [7]: 5 to 10 µM
5 | Cc1ccc2c(N3CCC(NC(C)(C)C)CC3)c(C#N)c(NCc3ccc(Cl)cc3)nc2c1 [Compound 416CN, 2-(4-chlorobenzylamino)-3-cyano-4-[4-(tert-butylamino)piperidin-1-yl]-7-methylquinoline] | 0.5 to 5 | 0.5 to 5 | 0.5 to 5 | 0.5 to 5 | 0.5 to 5 | 0.5 to 5 | 37.9 | 0.4 | 0.4 | 0.4 | 0.3 | 0.3 | 75.5 | 0.6 | 0.4 | 0.3 | 61.9 | 0.5 | 100 | 0.7 | EC50 [7]: 5 to 10 µM

Now from value to molecule, other results behind:

Row | EC50 [1] [µM] | EC50 [2] [µM] | EC50 [3] [µM] | EC50 [4] [µM] | EC50 [5] [µM] | EC50 [6] [µM] | Structure (SMILES) | viability at 4 µM [1] [%] | viability at 10 µM [1] [%] | viability at 4 µM [2] [%] | viability at 10 µM [2] [%] | viability at 4 µM [3] [%] | viability at 10 µM [3] [%] | viability at 4 µM [4] [%] | viability at 10 µM [4] [%] | viability at 4 µM [5] [%] | viability at 10 µM [5] [%] | viability at 4 µM [6] [%] | viability at 10 µM [6] [%] | viability at 4 µM [7] [%] | viability at 10 µM [7] [%] | other results
6 | 5 to 10 | 0.5 to 5 | 0.5 to 5 | 0.5 to 5 | 5 to 10 | 0.5 to 5 | CC(C)(C)NC1CCN(c2c(C#N)c(NCc3ccc(F)cc3)nc3ccccc23)CC1 [Compound 240CN, 2-(4-fluorobenzylamino)-3-cyano-4-[4-(tert-butylamino)piperidin-1-yl]quinoline] | 100 | 0.5 | 64.5 | 0.3 | 55.2 | 0.3 | 80 | 0.4 | 77.2 | 0.7 | 86.7 | 0.4 | 98.3 | 30 | EC50 [7]: 5 to 10 µM
7 | 5 to 10 | 5 to 10 | 5 to 10 | 5 to 10 | 5 to 10 | 5 to 10 | CC(C)(C)NC1CCN(c2c(F)c(NCc3ccc(F)cc3)nc3ccccc23)CC1 [Compound 240F, 2-(4-fluorobenzylamino)-3-fluoro-4-[4-(tert-butylamino)piperidin-1-yl]quinoline] | 83.4 | 50.8 | 73.6 | 0.2 | 49.6 | 0.2 | 70.5 | 2.5 | 94.7 | 28.7 | 46.1 | 0.1 | 96.5 | 59.5 | EC50 [7]: 5 to 10 µM
8 | 0.5 to 5 | 0.5 to 5 | 0.5 to 5 | 0.5 to 5 | 0.5 to 5 | 0.5 to 5 | Cc1cccc2c(N3CCC(NC(C)(C)C)CC3)c(C#N)c(NCc3ccc(Cl)cc3)nc12 [Compound 414CN, 2-(4-chlorobenzylamino)-3-cyano-4-[4-(tert-butylamino)piperidin-1-yl]-8-methylquinoline] | 0.5 | 0.3 | 0.3 | 0.4 | 0.3 | 0.3 | 79.8 | 0.5 | 0.7 | 0.3 | 9 | 0.5 | 91 | 0.8 | EC50 [7]: 5 to 10 µM
